Species on record: Rattus norvegicus
Assay: DrugMatrix - Regimen: Daily Repeat
Format: toxicity, organism-based, Sprague-Dawley
Parameters: regimen Daily Repeat, gender Male, age 6-8 weeks
Conditions: in vivo, iv, vehicle 100 % SALINE; for ABSOLUTE MONOCYTE / ABSOLUTE SEGMENTED NEUTROPHIL / BASOPHIL / EOSINOPHIL / ERYTHROCYTE COUNT / HEMATOCRIT / HEMOGLOBIN / LEUKOCYTE COUNT / LYMPHOCYTE / MEAN CORPUSCULAR HEMOGLOBIN / MEAN CORPUSCULAR HEMOGLOBIN CONCENTRATION / MEAN CORPUSCULAR VOLUME / MONOCYTE / NEUTROPHIL / NUCLEATED RED BLOOD CELLS / PLATELET COUNT / ABSOLUTE BASOPHIL / ABSOLUTE EOSINOPHIL / ABSOLUTE LYMPHOCYTE: tissue Blood; for ALANINE AMINOTRANSFERASE / ALBUMIN / ALKALINE PHOSPHATASE / ASPARTATE AMINOTRANSFERASE / BLOOD UREA NITROGEN / CARBON DIOXIDE / CHLORIDE / CHOLESTEROL / CREATINE PHOSPHOKINASE / CREATININE / GLUCOSE / LACTATE DEHYDROGENASE / LIPASE / PHOSPHORUS / POTASSIUM / SODIUM / TOTAL BILIRUBIN / TOTAL PROTEIN / URIC ACID: tissue Plasma
[1] = 20 mg/kg, 120 h, dose level Low, time 5 day
[2] = 82 mg/kg, 72 h, dose level High, time 3 day
[3] = 82 mg/kg, 120 h, dose level High, time 5 day

NCC[C@H](O)C(=O)N[C@@H]1C[C@H](N)[C@@H](O[C@H]2O[C@H](CN)[C@@H](O)[C@H](O)[C@H]2O)[C@H](O)[C@H]1O[C@H]1O[C@H](CO)[C@@H](O)[C@H](N)[C@H]1O [AMIKACIN]
ABSOLUTE MONOCYTE [1]: 11 CELLS/uL | ABSOLUTE SEGMENTED NEUTROPHIL [1]: 480 CELLS/uL | BASOPHIL [1]: 0% | EOSINOPHIL [1]: 0% | ERYTHROCYTE COUNT [1]: 5.48 x10E6/uL | HEMATOCRIT [1]: 33% | HEMOGLOBIN [1]: 12.63 G/DL | LEUKOCYTE COUNT [1]: 3.67 x10E3/uL | LYMPHOCYTE [1]: 86.67% | MEAN CORPUSCULAR HEMOGLOBIN [1]: 23 pg | MEAN CORPUSCULAR HEMOGLOBIN CONCENTRATION [1]: 38.3 G/DL | MEAN CORPUSCULAR VOLUME [1]: 60.1 fL | MONOCYTE [1]: 0.33% | NEUTROPHIL [1]: 13% | NUCLEATED RED BLOOD CELLS [1]: 0 /100WBC | PLATELET COUNT [1]: 622.33 x10E3/uL | ALANINE AMINOTRANSFERASE [1]: 72.67 u/L | ALBUMIN [1]: 3.63 G/DL | ALKALINE PHOSPHATASE [1]: 187.33 u/L | ASPARTATE AMINOTRANSFERASE [1]: 329.33 u/L | BLOOD UREA NITROGEN [1]: 16 mg/dL | CARBON DIOXIDE [1]: 32.67 mmol/L | CHLORIDE [1]: 98.67 MEQ/L | CHOLESTEROL [1]: 81.33 mg/dL | CREATINE PHOSPHOKINASE [1]: 388 u/L | CREATININE [1]: 0.13 mg/dL | GLUCOSE [1]: 162.67 mg/dL | LACTATE DEHYDROGENASE [1]: 112 u/L | LIPASE [1]: 9.67 u/L | PHOSPHORUS [1]: 10.23 mg/dL | POTASSIUM [1]: 5.93 MEQ/L | SODIUM [1]: 142.37 MEQ/L | TOTAL BILIRUBIN [1]: 0.1 mg/dL | TOTAL PROTEIN [1]: 5.3 G/DL | URIC ACID [1]: 0.53 mg/dL | ABSOLUTE BASOPHIL [2]: 0 CELLS/uL | ABSOLUTE EOSINOPHIL [2]: 29 CELLS/uL | ABSOLUTE LYMPHOCYTE [2]: 10165.67 CELLS/uL | ABSOLUTE MONOCYTE [2]: 121.67 CELLS/uL | ABSOLUTE SEGMENTED NEUTROPHIL [2]: 950.33 CELLS/uL | BASOPHIL [2]: 0% | EOSINOPHIL [2]: 0.33% | ERYTHROCYTE COUNT [2]: 5.81 x10E6/uL | HEMATOCRIT [2]: 35.97% | HEMOGLOBIN [2]: 13.7 G/DL | LEUKOCYTE COUNT [2]: 11.27 x10E3/uL | LYMPHOCYTE [2]: 90% | MEAN CORPUSCULAR HEMOGLOBIN [2]: 23.6 pg | MEAN CORPUSCULAR HEMOGLOBIN CONCENTRATION [2]: 38.1 G/DL | MEAN CORPUSCULAR VOLUME [2]: 61.93 fL | MONOCYTE [2]: 1% | NEUTROPHIL [2]: 8.67% | NUCLEATED RED BLOOD CELLS [2]: 0.33 /100WBC | PLATELET COUNT [2]: 1125.33 x10E3/uL | ALANINE AMINOTRANSFERASE [2]: 50.67 u/L | ALBUMIN [2]: 4.17 G/DL | ALKALINE PHOSPHATASE [2]: 370.33 u/L | ASPARTATE AMINOTRANSFERASE [2]: 84 u/L | BLOOD UREA NITROGEN [2]: 14.33 mg/dL | CARBON DIOXIDE [2]: 35 mmol/L | CHLORIDE [2]: 98.67 MEQ/L | CHOLESTEROL [2]: 74.33 mg/dL | CREATINE PHOSPHOKINASE [2]: 385.33 u/L | CREATININE [2]: 0.18 mg/dL | GLUCOSE [2]: 178.33 mg/dL | LACTATE DEHYDROGENASE [2]: 142.67 u/L | LIPASE [2]: 9 u/L | PHOSPHORUS [2]: 11.27 mg/dL | POTASSIUM [2]: 6 MEQ/L | SODIUM [2]: 143.33 MEQ/L | TOTAL BILIRUBIN [2]: 0.2 mg/dL | TOTAL PROTEIN [2]: 5.97 G/DL | URIC ACID [2]: 0.7 mg/dL | ABSOLUTE BASOPHIL [3]: 0 CELLS/uL | ABSOLUTE EOSINOPHIL [3]: 0 CELLS/uL | ABSOLUTE LYMPHOCYTE [3]: 6237.33 CELLS/uL | ABSOLUTE MONOCYTE [3]: 19 CELLS/uL | ABSOLUTE SEGMENTED NEUTROPHIL [3]: 743.67 CELLS/uL | BASOPHIL [3]: 0% | EOSINOPHIL [3]: 0% | ERYTHROCYTE COUNT [3]: 5.27 x10E6/uL | HEMATOCRIT [3]: 33.87% | HEMOGLOBIN [3]: 13.13 G/DL | LEUKOCYTE COUNT [3]: 7 x10E3/uL | LYMPHOCYTE [3]: 89.33% | MEAN CORPUSCULAR HEMOGLOBIN [3]: 24.93 pg | MEAN CORPUSCULAR HEMOGLOBIN CONCENTRATION [3]: 38.8 G/DL | MEAN CORPUSCULAR VOLUME [3]: 64.2 fL | MONOCYTE [3]: 0.33% | NEUTROPHIL [3]: 10.33% | NUCLEATED RED BLOOD CELLS [3]: 0.33 /100WBC | PLATELET COUNT [3]: 1177.67 x10E3/uL | ALANINE AMINOTRANSFERASE [3]: 59.67 u/L | ALBUMIN [3]: 3.9 G/DL | ALKALINE PHOSPHATASE [3]: 382 u/L | ASPARTATE AMINOTRANSFERASE [3]: 82 u/L | BLOOD UREA NITROGEN [3]: 17.33 mg/dL | CARBON DIOXIDE [3]: 32.33 mmol/L | CHLORIDE [3]: 100 MEQ/L | CHOLESTEROL [3]: 63.67 mg/dL | CREATINE PHOSPHOKINASE [3]: 235.67 u/L | CREATININE [3]: 0.15 mg/dL | GLUCOSE [3]: 160.67 mg/dL | LACTATE DEHYDROGENASE [3]: 113.33 u/L | LIPASE [3]: 9.33 u/L | PHOSPHORUS [3]: 10.73 mg/dL | POTASSIUM [3]: 5.04 MEQ/L | SODIUM [3]: 143.97 MEQ/L | TOTAL BILIRUBIN [3]: 0.17 mg/dL | TOTAL PROTEIN [3]: 5.83 G/DL | URIC ACID [3]: 0.5 mg/dL

— ChEMBL document CHEMBL3885881, “DrugMatrix”
